Data: patent US20110015068A1, “Herbicidal Compositions Comprising Pyroxasulfone V” (BASF SE, priority 2008, published 2011)

How the values were obtained:
Format in all cases: in vivo
Setaria faberii [1] = test: pre-emergence greenhouse test, SETFA
From the text: (§1) For the pre-emergence treatment, directly after sowing the active compounds, which had been suspended or emulsified in water, were applied by means of finely distributed nozzles. The containers were irrigated gently to promote germination and growth and subsequently covered with transparent plastic hoods until plant had rooted. This cover caused uniform germination of the tests plants, unless this was adversely affected by active compounds.
(§2) The respective herbicides A and/or safener were formulated as 10% by weight strength suspension concentrate and introduced to the spray liquor with the amount of solvent system used for applying the active compound. Herbicide B and/or safener were used as commercially available formulations and introduced to the spray liquor with the amount of solvent system used for applying the active compound. In the examples, the solvent used was water.
(§3) The test period extended over 21 days. During this time, the plants were tended, and their response to the treatments with active compound was evaluated.
(§4) The evaluation for the damage caused by the chemical compositions was carried out using a scale from 0 to 100%, compared to the untreated control plants. Here, 0 means no damage and 100 means complete destruction of the plants.

Setaria italica [2] = test: pre-emergence greenhouse test, SETIT; conditions: 25 g ai/ha
From the text: as §1, §2, §3, §4

Alopecurus myosuroides [3] = test: pre-emergence greenhouse test, ALOMY; conditions: 12.5 g ai/ha
From the text: as §1, §2, §3, §4

Bromus inermis = test: pre-emergence greenhouse test, BROIN; conditions: 3.13 g ai/ha
From the text: as §1, §2, §3, §4

Sorghum halepense [4] = test: pre-emergence greenhouse test, SORHA; conditions: 3.13 g ai/ha
From the text: as §1, §2, §3, §4

Chenopodium album [5] = test: pre-emergence greenhouse test, CHEAL; conditions: 3.13 g ai/ha
From the text: as §1, §2, §3, §4

Ipomoea purpurea = test: pre-emergence greenhouse test, PHBPU
From the text: as §1, §2, §3, §4

Ambrosia artemisifolia = test: pre-emergence greenhouse test, AMBEL; conditions: 12.5 g ai/ha
From the text: as §1, §2, §3, §4

Matricaria inermis [6] = test: pre-emergence greenhouse test, MATIN; conditions: 6.25 g ai/ha
From the text: as §1, §2, §3, §4

Galium aparine [7] = test: pre-emergence greenhouse test, GALAP; conditions: 3.13 g ai/ha
From the text: as §1, §2, §3, §4

Kochia scoparia [8] = test: pre-emergence greenhouse test, KCHSC; conditions: 12.5 g ai/ha
From the text: as §1, §2, §3, §4

Echinochloa crus-galli = test: post-emergence greenhouse test, ECHCG
From the text: (§5) For the post-emergence treatment, the test plants were first grown to a height of 3 to 20 cm, depending on the plant habit, and only then treated. Here, the herbicidal compositions were suspended or emulsified in water as distribution medium and sprayed using finely distributing nozzles.
as §2, §3, §4

Setaria lutescens = test: post-emergence greenhouse test, SETLU; conditions: 1.6 g ai/ha
From the text: as §5, §2, §3, §4

Alopecurus myosuroides [9] = test: post-emergence greenhouse test, ALOMY
From the text: as §5, §2, §3, §4

Sorghum halepense [10] = test: post-emergence greenhouse test, SORHA; conditions: 1.6 g ai/ha
From the text: as §5, §2, §3, §4

Setaria italica [11] = test: post-emergence greenhouse test, SETIT
From the text: as §5, §2, §3, §4

Chenopodium album [12] = test: post-emergence greenhouse test, CHEAL
From the text: as §5, §2, §3, §4

Polygonum convolvulus = test: post-emergence greenhouse test, POLCO
From the text: as §5, §2, §3, §4

Solanum nigrum = test: post-emergence greenhouse test, SOLNI; conditions: 13 g ai/ha
From the text: as §5, §2, §3, §4

Xanthium strumarium = test: post-emergence greenhouse test, XANST
From the text: as §5, §2, §3, §4

Galium aparine [13] = test: post-emergence greenhouse test, GALAP
From the text: as §5, §2, §3, §4

Kochia scoparia [14] = test: post-emergence greenhouse test, KCHSC; conditions: 6.25 g ai/ha
From the text: as §5, §2, §3, §4

Digitaria sanguinalis = test: post-emergence greenhouse test, DIGSA; conditions: 3.13 g ai/ha, 20 DAT, Table 4
From the text: as §5, §2, §3, §4

Lolium multiflorum = test: post-emergence greenhouse test, LOLMU; conditions: 12.5 g ai/ha, 20 DAT, Table 4
From the text: as §5, §2, §3, §4

Setaria faberii [15] = test: post-emergence greenhouse test, SETFA; conditions: 12.5 g ai/ha, 20 DAT, Table 4
From the text: as §5, §2, §3, §4

Matricaria inermis [16] = test: post-emergence greenhouse test, MATIN; conditions: 6.25 g ai/ha, 20 DAT, Table 4
From the text: as §5, §2, §3, §4

**Q.** For `CC(C)N(C)S(=O)(=O)NC(=O)c1cc(-n2c(=O)cc(C(F)(F)F)n(C)c2=O)c(F)cc1Cl` [saflufenacil], which observed % activity (Setaria faberii [1]; 6.25 g ai/ha, 8 DAT) is on record?
**A.** 0%

**Q.** What about the observed % activity (Setaria faberii [1]; 6.25 g ai/ha, 20 DAT) of the same molecule?
**A.** 35%

**Q.** And the observed % activity (Setaria faberii [1]; 12.5 g ai/ha, 8 DAT)?
**A.** 20%

**Q.** What about the observed % activity (Setaria faberii [1]; 12.5 g ai/ha, 20 DAT) of the same molecule?
**A.** 35%

**Q.** What about the observed % activity (Setaria italica [2]; 8 DAT) of the same molecule?
**A.** 40%

**Q.** What about the observed % activity (Setaria italica [2]; 20 DAT) of the same molecule?
**A.** 55%

**Q.** And the observed % activity (Alopecurus myosuroides [3]; 8 DAT)?
**A.** 30%

**Q.** And the observed % activity (Alopecurus myosuroides [3]; 20 DAT)?
**A.** 30%

**Q.** What about the observed % activity (Bromus inermis; 8 DAT) of the same molecule?
**A.** 0%

**Q.** What about the observed % activity (Bromus inermis; 20 DAT) of the same molecule?
**A.** 0%

**Q.** What about the observed % activity (Sorghum halepense [4]; 8 DAT) of the same molecule?
**A.** 0%

**Q.** What about the observed % activity (Sorghum halepense [4]; 20 DAT) of the same molecule?
**A.** 0%

**Q.** What about the observed % activity (Chenopodium album [5]; 8 DAT) of the same molecule?
**A.** 75%

**Q.** What about the observed % activity (Chenopodium album [5]; 20 DAT) of the same molecule?
**A.** 60%

**Q.** What about the observed % activity (Ipomoea purpurea; 3.13 g ai/ha, 8 DAT) of the same molecule?
**A.** 45%

**Q.** What about the observed % activity (Ipomoea purpurea; 3.13 g ai/ha, 20 DAT) of the same molecule?
**A.** 50%

**Q.** And the observed % activity (Ipomoea purpurea; 6.25 g ai/ha, 8 DAT)?
**A.** 80%

**Q.** What about the observed % activity (Ipomoea purpurea; 6.25 g ai/ha, 20 DAT) of the same molecule?
**A.** 80%

**Q.** And the observed % activity (Ambrosia artemisifolia; 8 DAT)?
**A.** 70%

**Q.** And the observed % activity (Ambrosia artemisifolia; 20 DAT)?
**A.** 80%

**Q.** And the observed % activity (Matricaria inermis [6]; 8 DAT)?
**A.** 95%

**Q.** And the observed % activity (Matricaria inermis [6]; 20 DAT)?
**A.** 98%

**Q.** And the observed % activity (Galium aparine [7]; 8 DAT)?
**A.** 40%

**Q.** What about the observed % activity (Galium aparine [7]; 20 DAT) of the same molecule?
**A.** 40%

**Q.** What about the observed % activity (Kochia scoparia [8]; 8 DAT) of the same molecule?
**A.** 75%

**Q.** What about the observed % activity (Kochia scoparia [8]; 20 DAT) of the same molecule?
**A.** 80%

**Q.** What about the observed % activity (Echinochloa crus-galli; 1.6 g ai/ha, 8 DAT) of the same molecule?
**A.** 10%

**Q.** What about the observed % activity (Echinochloa crus-galli; 1.6 g ai/ha, 20 DAT) of the same molecule?
**A.** 0%

**Q.** What about the observed % activity (Echinochloa crus-galli; 6.25 g ai/ha, 8 DAT) of the same molecule?
**A.** 10%

**Q.** And the observed % activity (Echinochloa crus-galli; 6.25 g ai/ha, 20 DAT)?
**A.** 0%

**Q.** What about the observed % activity (Echinochloa crus-galli; 13 g ai/ha, 8 DAT) of the same molecule?
**A.** 15%

**Q.** What about the observed % activity (Echinochloa crus-galli; 13 g ai/ha, 20 DAT) of the same molecule?
**A.** 0%

**Q.** What about the observed % activity (Setaria lutescens; 8 DAT) of the same molecule?
**A.** 30%

**Q.** What about the observed % activity (Setaria lutescens; 20 DAT) of the same molecule?
**A.** 10%

**Q.** What about the observed % activity (Alopecurus myosuroides [9]; 1.6 g ai/ha, 8 DAT) of the same molecule?
**A.** 0%

**Q.** What about the observed % activity (Alopecurus myosuroides [9]; 1.6 g ai/ha, 20 DAT) of the same molecule?
**A.** 0%

**Q.** What about the observed % activity (Alopecurus myosuroides [9]; 6.25 g ai/ha, 8 DAT) of the same molecule?
**A.** 20%

**Q.** And the observed % activity (Alopecurus myosuroides [9]; 6.25 g ai/ha, 20 DAT)?
**A.** 0%

**Q.** And the observed % activity (Alopecurus myosuroides [9]; 13 g ai/ha, 8 DAT)?
**A.** 35%

**Q.** And the observed % activity (Alopecurus myosuroides [9]; 13 g ai/ha, 20 DAT)?
**A.** 15%

**Q.** And the observed % activity (Sorghum halepense [10]; 8 DAT)?
**A.** 20%

**Q.** What about the observed % activity (Sorghum halepense [10]; 20 DAT) of the same molecule?
**A.** 35%

**Q.** And the observed % activity (Setaria italica [11]; 3.1 g ai/ha, 8 DAT)?
**A.** 30%

**Q.** What about the observed % activity (Setaria italica [11]; 3.1 g ai/ha, 20 DAT) of the same molecule?
**A.** 15%

**Q.** And the observed % activity (Setaria italica [11]; 6.25 g ai/ha, 8 DAT)?
**A.** 30%

**Q.** What about the observed % activity (Setaria italica [11]; 6.25 g ai/ha, 20 DAT) of the same molecule?
**A.** 20%

**Q.** And the observed % activity (Chenopodium album [12]; 6.25 g ai/ha, 8 DAT)?
**A.** 35%

**Q.** And the observed % activity (Chenopodium album [12]; 6.25 g ai/ha, 20 DAT)?
**A.** 35%

**Q.** And the observed % activity (Chenopodium album [12]; 13 g ai/ha, 8 DAT)?
**A.** 45%

**Q.** What about the observed % activity (Chenopodium album [12]; 13 g ai/ha, 20 DAT) of the same molecule?
**A.** 35%

**Q.** What about the observed % activity (Polygonum convolvulus; 1.6 g ai/ha, 8 DAT) of the same molecule?
**A.** 35%

**Q.** What about the observed % activity (Polygonum convolvulus; 1.6 g ai/ha, 20 DAT) of the same molecule?
**A.** 30%

**Q.** And the observed % activity (Polygonum convolvulus; 13 g ai/ha, 8 DAT)?
**A.** 95%

**Q.** What about the observed % activity (Polygonum convolvulus; 13 g ai/ha, 20 DAT) of the same molecule?
**A.** 98%

**Q.** What about the observed % activity (Solanum nigrum; 8 DAT) of the same molecule?
**A.** 85%

**Q.** And the observed % activity (Solanum nigrum; 20 DAT)?
**A.** 85%

**Q.** What about the observed % activity (Xanthium strumarium; 1.6 g ai/ha, 8 DAT) of the same molecule?
**A.** 35%

**Q.** And the observed % activity (Xanthium strumarium; 1.6 g ai/ha, 20 DAT)?
**A.** 45%

**Q.** What about the observed % activity (Xanthium strumarium; 3.1 g ai/ha, 8 DAT) of the same molecule?
**A.** 70%

**Q.** And the observed % activity (Xanthium strumarium; 3.1 g ai/ha, 20 DAT)?
**A.** 75%

**Q.** And the observed % activity (Xanthium strumarium; 6.25 g ai/ha, 8 DAT)?
**A.** 70%

**Q.** And the observed % activity (Xanthium strumarium; 6.25 g ai/ha, 20 DAT)?
**A.** 80%

**Q.** And the observed % activity (Galium aparine [13]; 1.6 g ai/ha, 8 DAT)?
**A.** 15%

**Q.** What about the observed % activity (Galium aparine [13]; 1.6 g ai/ha, 20 DAT) of the same molecule?
**A.** 20%

**Q.** What about the observed % activity (Galium aparine [13]; 3.1 g ai/ha, 8 DAT) of the same molecule?
**A.** 25%

**Q.** And the observed % activity (Galium aparine [13]; 3.1 g ai/ha, 20 DAT)?
**A.** 20%

**Q.** What about the observed % activity (Galium aparine [13]; 6.25 g ai/ha, 8 DAT) of the same molecule?
**A.** 35%

**Q.** And the observed % activity (Galium aparine [13]; 6.25 g ai/ha, 20 DAT)?
**A.** 30%

**Q.** And the observed % activity (Galium aparine [13]; 13 g ai/ha, 8 DAT)?
**A.** 80%

**Q.** And the observed % activity (Galium aparine [13]; 13 g ai/ha, 20 DAT)?
**A.** 70%

**Q.** What about the observed % activity (Kochia scoparia [14]; 8 DAT) of the same molecule?
**A.** 60%

**Q.** And the observed % activity (Kochia scoparia [14]; 20 DAT)?
**A.** 30%

**Q.** How did the “observed activity in % destruction” value (Chenopodium album [12]; 6.25 g ai/ha, 20 DAT, Table 4) turn out when `C#CCN1C(=O)C(F)(F)Oc2cc(F)c(-n3c(=O)n(C)c(=S)n(C)c3=O)cc21` [compound V-1] was run?
**A.** 60%

**Q.** And the “observed activity in % destruction” value (Galium aparine [13]; 3.13 g ai/ha, 20 DAT, Table 4)?
**A.** 30%

**Q.** What about the “observed activity in % destruction” value (Digitaria sanguinalis) of the same molecule?
**A.** 35%

**Q.** What about the “observed activity in % destruction” value (Lolium multiflorum) of the same molecule?
**A.** 85%

**Q.** What about the “observed activity in % destruction” value (Setaria faberii [15]) of the same molecule?
**A.** 70%

**Q.** And the “observed activity in % destruction” value (Matricaria inermis [16])?
**A.** 90%
